{"source": "ChEMBL document CHEMBL1140979", "about": "“Synthesis and antiamoebic activity of metronidazole thiosemicarbazone analogues” (Eur J Med Chem, 2008)", "data": [{"test_system": "Entamoeba histolytica", "experiment": "Antiamoebic activity against Entamoeba histolytica HM1:IMSS after 72 hrs by microdilution method", "format": "functional, organism-based", "units": {"IC50": "nM"}, "values": [{"smiles": "CC1CCN(C(=S)N/N=C/c2ccc(/C=C/c3ncc([N+](=O)[O-])n3CCO)cc2)CC1", "IC50": 1130}, {"smiles": "Cc1ccccc1NC(=S)N/N=C/c1ccc(/C=C/c2ncc([N+](=O)[O-])n2CCO)cc1", "IC50": 1570}, {"smiles": "O=[N+]([O-])c1cnc(/C=C/c2ccc(/C=N/NC(=S)N3CCCC3)cc2)n1CCO", "IC50": 1920}, {"smiles": "O=[N+]([O-])c1cnc(/C=C/c2ccc(/C=N/NC(=S)NC3CCCCC3)cc2)n1CCO", "IC50": 1500}, {"smiles": "O=[N+]([O-])c1cnc(/C=C/c2ccc(/C=N/NC(=S)N3CCCCCC3)cc2)n1CCO", "IC50": 1620}, {"smiles": "O=[N+]([O-])c1cnc(/C=C/c2ccc(/C=N/NC(=S)NC3CCCCCCC3)cc2)n1CCO", "IC50": 800}, {"smiles": "CN(Cc1ccccc1)C(=S)N/N=C/c1ccc(/C=C/c2ncc([N+](=O)[O-])n2CCO)cc1", "IC50": 2340}, {"smiles": "O=[N+]([O-])c1cnc(/C=C/c2ccc(/C=N/NC(=S)N3CCC(c4ccccc4)CC3)cc2)n1CCO", "IC50": 1250}, {"smiles": "Cc1ccc(NC(=S)N/N=C/c2ccc(/C=C/c3ncc([N+](=O)[O-])n3CCO)cc2)cc1", "IC50": 560}, {"smiles": "O=[N+]([O-])c1cnc(/C=C/c2ccc(/C=N/NC(=S)NCc3ccccc3Cl)cc2)n1CCO", "IC50": 3670}, {"smiles": "O=[N+]([O-])c1cnc(/C=C/c2ccc(/C=N/NC(=S)N3CCCc4ccccc43)cc2)n1CCO", "IC50": 1180}]}]}
